In ChEMBL document CHEMBL3885861, “Open TG-GATES”:

Species: Rattus norvegicus
Test: Open TG-GATES - Regimen: Daily Repeat
Assay type: toxicity, organism-based, Sprague-Dawley
Set-up: regimen Daily Repeat, gender Male, age 6 weeks
Conditions: in vivo, po, route gavage; for APTT / Bas / Eos / Fbg / Hb / Ht / Lym / MCH / MCHC / MCV / Mono / Neu / PT / Plat / RBC / Ret / WBC: tissue Blood; for KIDNEY_L / KIDNEY_R / KIDNEY_TOTAL: tissue Kidney; for LIVER: tissue Liver; for A/G / ALP / ALT / AST / BUN / CRE / Ca / Cl / DBIL / GLC / IP / K / LDH / Na / PL / RALB / TBIL / TC / TG / TP / gamma-GTP: tissue Plasma
[1] = 0 mg/kg, 72 h, dose level Control, time 3 day
[2] = 0 mg/kg, […], dose level Control, time 7 day
[3] = 0 mg/kg, […], dose level Control, time 14 day
[4] = 0 mg/kg, […], dose level Control, time 28 day
[5] = 30 mg/kg, 72 h, dose level Low, time 3 day
[6] = 30 mg/kg, […], dose level Low, time 7 day
[7] = 30 mg/kg, […], dose level Low, time 14 day
[8] = 30 mg/kg, […], dose level Low, time 28 day

Clc1c(Cl)c(Cl)c(Cl)c(Cl)c1Cl [PERCHLOROBENZENE]
TERMINAL_BW [1]: 224.3 g
APTT [1]: 16.2 s
Bas [1]: 0%
Eos [1]: 1.2%
Fbg [1]: 217.4 mg/dL
Hb [1]: 13.7 g/dL
Ht [1]: 40.9%
Lym [1]: 77%
MCH [1]: 22 pg
MCHC [1]: 33.5%
MCV [1]: 65.6 fL
Mono [1]: 8%
Neu [1]: 13.8%
PT [1]: 11.8 s
Plat [1]: 98.6 x10_4/uL
RBC [1]: 623.2 x10_4/ul
Ret [1]: 8.6%
WBC [1]: 102.9 x10_2/uL
KIDNEY_L [1]: 1.1 g
KIDNEY_R [1]: 1.1 g
KIDNEY_TOTAL [1]: 2.2 g
LIVER [1]: 11.5 g
A/G [1]: 2.1
ALP [1]: 882.4 IU/L
ALT [1]: 40.2 IU/L
AST [1]: 59 IU/L
BUN [1]: 16.2 mg/dL
CRE [1]: 0.5 mg/dL
Ca [1]: 10.5 mg/dL
Cl [1]: 105.2 meq/L
DBIL [1]: 0.038 mg/dL
GLC [1]: 193.4 mg/dL
IP [1]: 8.5 mg/dL
K [1]: 5.4 meq/L
LDH [1]: 85.8 IU/L
Na [1]: 138.6 meq/L
PL [1]: 135 mg/dL
RALB [1]: 3.9 g/dL
TBIL [1]: 0.3 mg/dL
TC [1]: 73 mg/dL
TG [1]: 68.8 mg/dL
TP [1]: 5.8 g/dL
gamma-GTP [1]: 1.4 IU/L
TERMINAL_BW [2]: 255.4 g
TERMINAL_BW [3]: 321.1 g
TERMINAL_BW [4]: 417.1 g
APTT [2]: 15.8 s
Bas [2]: 0%
Eos [2]: 1.2%
Fbg [2]: 222.8 mg/dL
Hb [2]: 14.2 g/dL
Ht [2]: 42.4%
Lym [2]: 76.6%
MCH [2]: 21.8 pg
MCHC [2]: 33.4%
MCV [2]: 65.2 fL
Mono [2]: 7.2%
Neu [2]: 14.8%
PT [2]: 12 s
Plat [2]: 96.5 x10_4/uL
RBC [2]: 651.2 x10_4/ul
Ret [2]: 5.9%
WBC [2]: 105.4 x10_2/uL
APTT [3]: 16 s
Bas [3]: 0%
Eos [3]: 1%
Fbg [3]: 237.6 mg/dL
Hb [3]: 14.4 g/dL
Ht [3]: 43%
Lym [3]: 78.8%
MCH [3]: 21.2 pg
MCHC [3]: 33.5%
MCV [3]: 63.2 fL
Mono [3]: 6.4%
Neu [3]: 13.8%
PT [3]: 11.9 s
Plat [3]: 106.8 x10_4/uL
RBC [3]: 681.2 x10_4/ul
Ret [3]: 5.2%
WBC [3]: 160.8 x10_2/uL
APTT [4]: 16.5 s
Bas [4]: 0%
Eos [4]: 1.2%
Fbg [4]: 221 mg/dL
Hb [4]: 15.2 g/dL
Ht [4]: 45.9%
Lym [4]: 83.4%
MCH [4]: 19.3 pg
MCHC [4]: 33.1%
MCV [4]: 58.5 fL
Mono [4]: 4.8%
Neu [4]: 10.8%
PT [4]: 11.7 s
Plat [4]: 97.1 x10_4/uL
RBC [4]: 783.8 x10_4/ul
Ret [4]: 2.5%
WBC [4]: 133.5 x10_2/uL
KIDNEY_L [2]: 1.1 g
KIDNEY_R [2]: 1.2 g
KIDNEY_TOTAL [2]: 2.3 g
KIDNEY_L [3]: 1.3 g
KIDNEY_R [3]: 1.3 g
KIDNEY_TOTAL [3]: 2.6 g
KIDNEY_L [4]: 1.4 g
KIDNEY_R [4]: 1.5 g
KIDNEY_TOTAL [4]: 2.9 g
LIVER [2]: 12.9 g
LIVER [3]: 15.7 g
LIVER [4]: 18.2 g
A/G [2]: 2
ALP [2]: 912 IU/L
ALT [2]: 33.4 IU/L
AST [2]: 58.6 IU/L
BUN [2]: 19.2 mg/dL
CRE [2]: 0.6 mg/dL
Ca [2]: 10.3 mg/dL
Cl [2]: 105.2 meq/L
DBIL [2]: 0.024 mg/dL
GLC [2]: 193.6 mg/dL
IP [2]: 7.7 mg/dL
K [2]: 4.8 meq/L
LDH [2]: 95.8 IU/L
Na [2]: 137.4 meq/L
PL [2]: 148.6 mg/dL
RALB [2]: 4 g/dL
TBIL [2]: 0.4 mg/dL
TC [2]: 78.2 mg/dL
TG [2]: 94.6 mg/dL
TP [2]: 5.9 g/dL
gamma-GTP [2]: 1 IU/L
A/G [3]: 1.8
ALP [3]: 615.2 IU/L
ALT [3]: 31.2 IU/L
AST [3]: 58.2 IU/L
BUN [3]: 18.6 mg/dL
CRE [3]: 0.6 mg/dL
Ca [3]: 10.2 mg/dL
Cl [3]: 105.6 meq/L
DBIL [3]: 0.004 mg/dL
GLC [3]: 189 mg/dL
IP [3]: 7.6 mg/dL
K [3]: 4.9 meq/L
LDH [3]: 98 IU/L
Na [3]: 138.4 meq/L
PL [3]: 155.6 mg/dL
RALB [3]: 4 g/dL
TBIL [3]: 0.3 mg/dL
TC [3]: 79 mg/dL
TG [3]: 136.4 mg/dL
TP [3]: 6.2 g/dL
gamma-GTP [3]: 1.2 IU/L
A/G [4]: 1.8
ALP [4]: 643.6 IU/L
ALT [4]: 32.6 IU/L
AST [4]: 54.2 IU/L
BUN [4]: 18.6 mg/dL
CRE [4]: 0.7 mg/dL
Ca [4]: 10.6 mg/dL
Cl [4]: 105.4 meq/L
DBIL [4]: 0.014 mg/dL
GLC [4]: 193 mg/dL
IP [4]: 7.5 mg/dL
K [4]: 4.3 meq/L
LDH [4]: 102 IU/L
Na [4]: 140 meq/L
PL [4]: 160.4 mg/dL
RALB [4]: 4.2 g/dL
TBIL [4]: 0.3 mg/dL
TC [4]: 77 mg/dL
TG [4]: 140.6 mg/dL
TP [4]: 6.5 g/dL
gamma-GTP [4]: 1 IU/L
TERMINAL_BW [5]: 223.9 g
APTT [5]: 16.2 s
Bas [5]: 0%
Eos [5]: 1.2%
Fbg [5]: 215.4 mg/dL
Hb [5]: 13.9 g/dL
Ht [5]: 41.8%
Lym [5]: 72.2%
MCH [5]: 21.8 pg
MCHC [5]: 33.3%
MCV [5]: 65.6 fL
Mono [5]: 6.8%
Neu [5]: 19.6%
PT [5]: 11.5 s
Plat [5]: 98.9 x10_4/uL
RBC [5]: 637.6 x10_4/ul
Ret [5]: 7.6%
WBC [5]: 102.3 x10_2/uL
KIDNEY_L [5]: 1.1 g
KIDNEY_R [5]: 1.1 g
KIDNEY_TOTAL [5]: 2.2 g
LIVER [5]: 12.4 g
A/G [5]: 2.2
ALP [5]: 816 IU/L
ALT [5]: 41.6 IU/L
AST [5]: 67 IU/L
BUN [5]: 14.6 mg/dL
CRE [5]: 0.5 mg/dL
Ca [5]: 10.5 mg/dL
Cl [5]: 105.6 meq/L
DBIL [5]: 0.028 mg/dL
GLC [5]: 194.4 mg/dL
IP [5]: 8.3 mg/dL
K [5]: 5.1 meq/L
LDH [5]: 104 IU/L
Na [5]: 139.6 meq/L
PL [5]: 143.8 mg/dL
RALB [5]: 3.9 g/dL
TBIL [5]: 0.4 mg/dL
TC [5]: 82 mg/dL
TG [5]: 79.8 mg/dL
TP [5]: 5.7 g/dL
gamma-GTP [5]: 1.4 IU/L
TERMINAL_BW [6]: 255.4 g
TERMINAL_BW [7]: 320.4 g
TERMINAL_BW [8]: 413.2 g
APTT [6]: 16.5 s
Bas [6]: 0%
Eos [6]: 1.4%
Fbg [6]: 225 mg/dL
Hb [6]: 14 g/dL
Ht [6]: 42%
Lym [6]: 79.6%
MCH [6]: 21.1 pg
MCHC [6]: 33.4%
MCV [6]: 63.3 fL
Mono [6]: 5.2%
Neu [6]: 14.2%
PT [6]: 11.6 s
Plat [6]: 116.4 x10_4/uL
RBC [6]: 663.6 x10_4/ul
Ret [6]: 5.4%
WBC [6]: 97.6 x10_2/uL
APTT [7]: 17.7 s
Bas [7]: 0%
Eos [7]: 1.6%
Fbg [7]: 225.8 mg/dL
Hb [7]: 14.4 g/dL
Ht [7]: 43%
Lym [7]: 66.8%
MCH [7]: 20.5 pg
MCHC [7]: 33.5%
MCV [7]: 61.3 fL
Mono [7]: 12%
Neu [7]: 19.6%
PT [7]: 11.9 s
Plat [7]: 119 x10_4/uL
RBC [7]: 702.6 x10_4/ul
Ret [7]: 4.3%
WBC [7]: 113.1 x10_2/uL
APTT [8]: 21.6 s
Bas [8]: 0%
Eos [8]: 1.8%
Fbg [8]: 258.6 mg/dL
Hb [8]: 15 g/dL
Ht [8]: 44.8%
Lym [8]: 69.8%
MCH [8]: 20.4 pg
MCHC [8]: 33.4%
MCV [8]: 61 fL
Mono [8]: 12%
Neu [8]: 16.2%
PT [8]: 13.2 s
Plat [8]: 102.4 x10_4/uL
RBC [8]: 735 x10_4/ul
Ret [8]: 3%
WBC [8]: 113.2 x10_2/uL
KIDNEY_L [6]: 1.2 g
KIDNEY_R [6]: 1.2 g
KIDNEY_TOTAL [6]: 2.4 g
KIDNEY_L [7]: 1.3 g
KIDNEY_R [7]: 1.4 g
KIDNEY_TOTAL [7]: 2.7 g
KIDNEY_L [8]: 1.7 g
KIDNEY_R [8]: 1.7 g
KIDNEY_TOTAL [8]: 3.4 g
LIVER [6]: 14.7 g
LIVER [7]: 20.2 g
LIVER [8]: 27.3 g
A/G [6]: 2.1
ALP [6]: 719.8 IU/L
ALT [6]: 33.2 IU/L
AST [6]: 55.8 IU/L
BUN [6]: 15.8 mg/dL
CRE [6]: 0.6 mg/dL
Ca [6]: 10.4 mg/dL
Cl [6]: 104.8 meq/L
DBIL [6]: 0.002 mg/dL
GLC [6]: 190.6 mg/dL
IP [6]: 7.9 mg/dL
K [6]: 5 meq/L
LDH [6]: 93.6 IU/L
Na [6]: 137.6 meq/L
PL [6]: 166.4 mg/dL
RALB [6]: 4 g/dL
TBIL [6]: 0.5 mg/dL
TC [6]: 89.4 mg/dL
TG [6]: 129.8 mg/dL
TP [6]: 5.9 g/dL
gamma-GTP [6]: 1.2 IU/L
A/G [7]: 1.8
ALP [7]: 589.2 IU/L
ALT [7]: 35.4 IU/L
AST [7]: 61.8 IU/L
BUN [7]: 17.6 mg/dL
CRE [7]: 0.6 mg/dL
Ca [7]: 10.4 mg/dL
Cl [7]: 105.4 meq/L
DBIL [7]: 0.004 mg/dL
GLC [7]: 173.2 mg/dL
IP [7]: 7.1 mg/dL
K [7]: 4.9 meq/L
LDH [7]: 84.6 IU/L
Na [7]: 139.6 meq/L
PL [7]: 201 mg/dL
RALB [7]: 4 g/dL
TBIL [7]: 0.4 mg/dL
TC [7]: 120.6 mg/dL
TG [7]: 119.6 mg/dL
TP [7]: 6.2 g/dL
gamma-GTP [7]: 2 IU/L
A/G [8]: 1.6
ALP [8]: 345.6 IU/L
ALT [8]: 35.6 IU/L
AST [8]: 55.2 IU/L
BUN [8]: 18.6 mg/dL
CRE [8]: 0.7 mg/dL
Ca [8]: 10.8 mg/dL
Cl [8]: 105 meq/L
DBIL [8]: 0.004 mg/dL
GLC [8]: 160.4 mg/dL
IP [8]: 7 mg/dL
K [8]: 4.7 meq/L
LDH [8]: 75 IU/L
Na [8]: 141.2 meq/L
PL [8]: 190.6 mg/dL
RALB [8]: 4.4 g/dL
TBIL [8]: 0.4 mg/dL
TC [8]: 118 mg/dL
TG [8]: 127.4 mg/dL
TP [8]: 7.2 g/dL
gamma-GTP [8]: 3.2 IU/L
